Legend:
Format in all cases: functional
Candida albicans [1] = assay: Antifungal activity against Candida albicans ATCC 90028 assessed as planktonic growth inhibition at 5.53 uM after 48 hrs by M27-A3 protocol based method relative to control; settings: ATCC 90028, 48 h, read-out: GI
Candida albicans [2] = assay: Antifungal activity against Candida albicans ATCC 90028 assessed as planktonic growth inhibition at 11.07 uM after 48 hrs by M27-A3 protocol based method relative to control; settings: ATCC 90028, 48 h, read-out: GI
Candida albicans [3] = assay: Antifungal activity against Candida albicans ATCC 90028 assessed as planktonic growth inhibition at 1.38 uM after 48 hrs by M27-A3 protocol based method relative to control; settings: ATCC 90028, 48 h, read-out: GI
Candida albicans [4] = assay: Antifungal activity against Candida albicans ATCC 90028 assessed as planktonic growth inhibition at 2.77 uM after 48 hrs by M27-A3 protocol based method relative to control; settings: ATCC 90028, 48 h, read-out: GI
Candida albicans [5] = assay: Antifungal activity against Candida albicans ATCC 90028 assessed as planktonic growth inhibition at 0.09 uM after 48 hrs by M27-A3 protocol based method relative to control; settings: ATCC 90028, 48 h, read-out: GI
Candida albicans [6] = assay: Antifungal activity against Candida albicans ATCC 90028 assessed as planktonic growth inhibition at 0.35 uM after 48 hrs by M27-A3 protocol based method relative to control; settings: ATCC 90028, 48 h, read-out: GI
Candida albicans [7] = assay: Antifungal activity against Candida albicans ATCC 90028 assessed as planktonic growth inhibition at 22.13 uM after 48 hrs by M27-A3 protocol based method relative to control; settings: ATCC 90028, 48 h, read-out: GI
Candida albicans [8] = assay: Fungicidal activity against Candida albicans ATCC 90028 assessed as log reduction in fungal load incubated for 48 hrs followed by replating on sabouraud dextrose agar plate and measured after 48 hrs
Candida albicans [9] = assay: Antifungal activity against Candida albicans ATCC 90028 assessed as planktonic growth inhibition at 0.69 uM after 48 hrs by M27-A3 protocol based method relative to control; settings: ATCC 90028, 48 h, read-out: GI
Candida albicans [10] = assay: Antifungal activity against Candida albicans ATCC 90028 assessed as planktonic growth inhibition at 0.17 uM after 48 hrs by M27-A3 protocol based method relative to control; settings: ATCC 90028, 48 h, read-out: GI
Candida albicans [11] = assay: Antifungal activity against Candida albicans ATCC 90028 assessed as planktonic growth inhibition at 44.26 uM after 48 hrs by M27-A3 protocol based method relative to control; settings: ATCC 90028, 48 h, read-out: GI
Candida albicans [12] = assay: Antifungal activity against Candida albicans ATCC 90028 assessed as planktonic growth inhibition at 10.37 uM after 48 hrs by M27-A3 protocol based method relative to control; settings: ATCC 90028, 48 h, read-out: GI
Candida albicans [13] = assay: Antifungal activity against Candida albicans ATCC 90028 assessed as planktonic growth inhibition at 0.65 uM after 48 hrs by M27-A3 protocol based method relative to control; settings: ATCC 90028, 48 h, read-out: GI
Candida albicans [14] = assay: Antifungal activity against Candida albicans ATCC 90028 assessed as planktonic growth inhibition at 20.73 uM after 48 hrs by M27-A3 protocol based method relative to control; settings: ATCC 90028, 48 h, read-out: GI
Candida albicans [15] = assay: Antifungal activity against Candida albicans ATCC 90028 assessed as planktonic growth inhibition at 1.3 uM after 48 hrs by M27-A3 protocol based method relative to control; settings: ATCC 90028, 48 h, read-out: GI
Candida albicans [16] = assay: Antifungal activity against Candida albicans ATCC 90028 assessed as planktonic growth inhibition at 0.32 uM after 48 hrs by M27-A3 protocol based method relative to control; settings: ATCC 90028, 48 h, read-out: GI
Candida albicans [17] = assay: Antifungal activity against Candida albicans ATCC 90028 assessed as planktonic growth inhibition at 41.47 uM after 48 hrs by M27-A3 protocol based method relative to control; settings: ATCC 90028, 48 h, read-out: GI
Candida albicans [18] = assay: Antifungal activity against Candida albicans ATCC 90028 assessed as planktonic growth inhibition at 5.18 uM after 48 hrs by M27-A3 protocol based method relative to control; settings: ATCC 90028, 48 h, read-out: GI
Candida albicans [19] = assay: Antifungal activity against Candida albicans ATCC 90028 assessed as planktonic growth inhibition at 2.59 uM after 48 hrs by M27-A3 protocol based method relative to control; settings: ATCC 90028, 48 h, read-out: GI
Candida albicans [20] = assay: Antifungal activity against Candida albicans ATCC 90028 assessed as planktonic growth inhibition at 0.08 uM after 48 hrs by M27-A3 protocol based method relative to control; settings: ATCC 90028, 48 h, read-out: GI
Candida albicans [21] = assay: Antifungal activity against Candida albicans ATCC 90028 assessed as planktonic growth inhibition at 0.16 uM after 48 hrs by M27-A3 protocol based method relative to control; settings: ATCC 90028, 48 h, read-out: GI
Candida albicans [22] = assay: Antifungal activity against Candida albicans ATCC 90028 assessed as planktonic growth inhibition at 0.34 uM after 48 hrs by M27-A3 protocol based method relative to control; settings: ATCC 90028, 48 h, read-out: GI
Candida albicans [23] = assay: Antifungal activity against Candida albicans ATCC 90028 assessed as planktonic growth inhibition at 21.89 uM after 48 hrs by M27-A3 protocol based method relative to control; settings: ATCC 90028, 48 h, read-out: GI
Candida albicans [24] = assay: Antifungal activity against Candida albicans ATCC 90028 assessed as planktonic growth inhibition at 10.95 uM after 48 hrs by M27-A3 protocol based method relative to control; settings: ATCC 90028, 48 h, read-out: GI
Candida albicans [25] = assay: Antifungal activity against Candida albicans ATCC 90028 assessed as planktonic growth inhibition at 5.47 uM after 48 hrs by M27-A3 protocol based method relative to control; settings: ATCC 90028, 48 h, read-out: GI
Candida albicans [26] = assay: Antifungal activity against Candida albicans ATCC 90028 assessed as planktonic growth inhibition at 2.74 uM after 48 hrs by M27-A3 protocol based method relative to control; settings: ATCC 90028, 48 h, read-out: GI
Candida albicans [27] = assay: Antifungal activity against Candida albicans ATCC 90028 assessed as planktonic growth inhibition at 0.68 uM after 48 hrs by M27-A3 protocol based method relative to control; settings: ATCC 90028, 48 h, read-out: GI
Candida albicans [28] = assay: Antifungal activity against Candida albicans ATCC 90028 assessed as planktonic growth inhibition at 1.37 uM after 48 hrs by M27-A3 protocol based method relative to control; settings: ATCC 90028, 48 h, read-out: GI
Candida albicans [29] = assay: Antifungal activity against Candida albicans ATCC 90028 assessed as planktonic growth inhibition at 43.78 uM after 48 hrs by M27-A3 protocol based method relative to control; settings: ATCC 90028, 48 h, read-out: GI

Cc1ccc(-c2nnn(CCCN3CCCC3c3ccc(C)cc3)n2)cc1 (centres undefined)
inhibition of growth at 5.53 µM (Candida albicans [1]): 99.3%
inhibition of growth at 11.07 µM (Candida albicans [2]): 98.9%
inhibition of growth at 1.38 µM (Candida albicans [3]): 99%
inhibition of growth at 2.77 µM (Candida albicans [4]): 99%
inhibition of growth at 0.09 µM (Candida albicans [5]): 99%
inhibition of growth at 0.35 µM (Candida albicans [6]): 99.1%
inhibition of growth at 22.13 µM (Candida albicans [7]): 99.3%
log(activity) (Candida albicans [8]): -0.6
inhibition of growth at 0.69 µM (Candida albicans [9]): 99.2%
inhibition of growth at 0.17 µM (Candida albicans [10]): 99.3%
inhibition of growth at 44.26 µM (Candida albicans [11]): 99.6%

Cc1ccc(-c2nnn(CCCN3CCCC3c3cccc(C)c3)n2)cc1 (centres undefined)
inhibition of growth at 5.53 µM (Candida albicans [1]): 99.1%
inhibition of growth at 11.07 µM (Candida albicans [2]): 98.8%
inhibition of growth at 1.38 µM (Candida albicans [3]): 98.9%
inhibition of growth at 2.77 µM (Candida albicans [4]): 99.3%
inhibition of growth at 0.09 µM (Candida albicans [5]): 98.9%
inhibition of growth at 0.35 µM (Candida albicans [6]): 99%
inhibition of growth at 22.13 µM (Candida albicans [7]): 98.7%
log(activity) (Candida albicans [8]): -0.4
inhibition of growth at 0.69 µM (Candida albicans [9]): 98.9%
inhibition of growth at 0.17 µM (Candida albicans [10]): 98.9%
inhibition of growth at 44.26 µM (Candida albicans [11]): 99%

Fc1ccc(C2CCCN2CCCn2nnc(-c3ccccc3Cl)n2)cc1 (centres undefined)
inhibition of growth at 10.37 µM (Candida albicans [12]): 99.4%
inhibition of growth at 0.65 µM (Candida albicans [13]): 99%
inhibition of growth at 20.73 µM (Candida albicans [14]): 99.5%
inhibition of growth at 1.3 µM (Candida albicans [15]): 99.2%
inhibition of growth at 0.32 µM (Candida albicans [16]): 98.9%
inhibition of growth at 41.47 µM (Candida albicans [17]): 99.6%
inhibition of growth at 5.18 µM (Candida albicans [18]): 99.3%
log(activity) (Candida albicans [8]): -0.4
inhibition of growth at 2.59 µM (Candida albicans [19]): 99.3%
inhibition of growth at 0.08 µM (Candida albicans [20]): 98.6%
inhibition of growth at 0.16 µM (Candida albicans [21]): 98.7%

Cc1ccc(-c2nnn(CCCN3CCCC3c3ccc(F)cc3)n2)cc1 (centres undefined)
inhibition of growth at 0.34 µM (Candida albicans [22]): 99.2%
inhibition of growth at 21.89 µM (Candida albicans [23]): 98.7%
inhibition of growth at 10.95 µM (Candida albicans [24]): 99.4%
inhibition of growth at 0.09 µM (Candida albicans [5]): 99.1%
inhibition of growth at 5.47 µM (Candida albicans [25]): 99%
inhibition of growth at 2.74 µM (Candida albicans [26]): 99.2%
inhibition of growth at 0.68 µM (Candida albicans [27]): 99.1%
log(activity) (Candida albicans [8]): -0.3
inhibition of growth at 1.37 µM (Candida albicans [28]): 99.2%
inhibition of growth at 0.17 µM (Candida albicans [10]): 99.1%
inhibition of growth at 43.78 µM (Candida albicans [29]): 98.9%
